Assay results from ChEMBL document CHEMBL1150825, “Anti-HIV prenylated flavonoids from Monotes africanus” (J Nat Prod, 2001).
In brackets after ≈: the same amount, converted by molar mass.

Test system: Human immunodeficiency virus; call rule not given here
Assay: Antiviral activity against HIV assessed as protection against virus-induced cytopathicity by cell based XTT assay
Format: functional, organism-based
[1] = Human immunodeficiency virus 1, read-out: EC50

SMILES | EC50 | IC50 (Human immunodeficiency virus 1) | EC50 [1]
C=CC(C)(C)c1c(O)cc2c(c1O)C(=O)C[C@@H](c1ccc(O)cc1)O2 | Not Active |  | 
CC(C)=CCC/C(C)=C/Cc1c(O)cc2c(c1O)C(=O)[C@H](O)[C@@H](c1ccc(O)cc1)O2 [BONANNIOL A] | Not Active |  | 
CC(C)=CCC/C(C)=C/Cc1c(O)cc2oc(-c3ccc(O)cc3)c(O)c(=O)c2c1O [MACARANGIN] | Not Active |  | 
CC(C)=CCc1c(O)c(CC=C(C)C)c2c(c1O)C(=O)[C@H](O)[C@@H](c1ccc(O)cc1)O2 |  | 4.7 µg/mL (≈ 11.1 µM) | 2.1 µg/mL (≈ 4.95 µM)
CC(C)=CCc1c(O)c(CC=C(C)C)c2c(c1O)C(=O)C[C@@H](c1ccc(O)cc1)O2 [LONCHOCARPOL A] |  | 2.7 µg/mL (≈ 6.61 µM) | 1.3 µg/mL (≈ 3.18 µM)
CC(C)=CCc1c(O)c(CC=C(C)C)c2oc(-c3ccc(O)cc3)c(O)c(=O)c2c1O |  | 5.8 µg/mL (≈ 13.7 µM) | 2.4 µg/mL (≈ 5.68 µM)
